Data published in PubChem BioAssay AID2060616 (Molecular Pharmacology Branch, DTP, NCI, 2025).
pIC50: −log10 of the molar value. Values joined by “and” are separate entries in the source; they are usually repeats but may differ in a detail not shown here. Equal values may be shown once. One block for each compound: values may come before it.

Test system: 377384-186-R-J1-PDC complex spheroid viability
Assay: Anticancer human tumor 377384-186-R-J1-PDC patient-derived pancreatic carcinoma cell line growth inhibition [CLK]
Details: for viability, T/C: stronger effect = lower value
Outline: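 Patient-derived tumor cells grown as complex spheroids with HUVEC endothelial cells and mesenchymal stem cells, treated with drug combinations. Concentrations descend in half-log steps from near clinical Cmax, or from 10 microM if Cmax unknown.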
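Further: spheroids exposed to agents for 7 days before reading.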
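Wherever viability, T/C is given: luminescence signal used as a stand-in for viable cells.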

pIC50 (curve of compound): 5.15 and 5.49
SMILES: O=C(c1cc(Cc2n[nH]c(=O)c3ccccc23)ccc1F)N1CCN(C(=O)C2CC2)CC1
viability, T/C (compound 0.0316 µM): 75.9% and 81.2%
viability, T/C (compound 0.1 µM): 78.6% and 74%
viability, T/C (compound 0.316 µM): 73.8% and 82.2%
viability, T/C (compound 1 µM): 74.3% and 63.9%
viability, T/C (compound 3.16 µM): 65.9% and 51.8%
viability, T/C (compound 10 µM): 43.2% and 39%

pIC50 (curve of first compound, second compound 0.0316 µM): < 6.52
pIC50 (curve of first compound, second compound 0.1 µM): 7.27
pIC50 (curve of first compound, second compound 0.316 µM): > 9.02
pIC50 (curve of first compound, second compound 1 µM): > 9.02
pIC50 (curve of first compound, second compound 3.16 µM): > 9.02
pIC50 (curve of first compound, second compound 10 µM): > 9.02
SMILES: C=CC(=O)Nc1cc(Nc2nccc(-c3cn(C)c4ccccc34)n2)c(OC)cc1N(C)CCN(C)C + CNC(=O)c1ccc(Nc2nc(OC3CCCC3)c3c(-c4ccc5nc(C)oc5c4)c[nH]c3n2)c(OC)c1
viability, T/C (second compound 0.0316 µM, first compound 0.000949 µM): 91.5%
viability, T/C (second compound 0.0316 µM, first compound 0.003 µM): 109%
viability, T/C (second compound 0.0316 µM, first compound 0.00949 µM): 99.2%
viability, T/C (second compound 0.0316 µM, first compound 0.03 µM): 103%
viability, T/C (second compound 0.0316 µM, first compound 0.0949 µM): 86.3%
viability, T/C (second compound 0.0316 µM, first compound 0.3 µM): 59%
viability, T/C (second compound 0.1 µM, first compound 0.000949 µM): 64.1%
viability, T/C (second compound 0.1 µM, first compound 0.003 µM): 63.5%
viability, T/C (second compound 0.1 µM, first compound 0.00949 µM): 55.7%
viability, T/C (second compound 0.1 µM, first compound 0.03 µM): 59.4%
viability, T/C (second compound 0.1 µM, first compound 0.0949 µM): 42.8%
viability, T/C (second compound 0.1 µM, first compound 0.3 µM): 29.7%
viability, T/C (second compound 0.316 µM, first compound 0.000949 µM): 20.6%
viability, T/C (second compound 0.316 µM, first compound 0.003 µM): 23.6%
viability, T/C (second compound 0.316 µM, first compound 0.00949 µM): 20.6%
viability, T/C (second compound 0.316 µM, first compound 0.03 µM): 17.2%
viability, T/C (second compound 0.316 µM, first compound 0.0949 µM): 17.3%
viability, T/C (second compound 0.316 µM, first compound 0.3 µM): 17%
viability, T/C (second compound 1 µM, first compound 0.000949 µM): 17.7%
viability, T/C (second compound 1 µM, first compound 0.003 µM): 18.1%
viability, T/C (second compound 1 µM, first compound 0.00949 µM): 21.8%
viability, T/C (second compound 1 µM, first compound 0.03 µM): 19.2%
viability, T/C (second compound 1 µM, first compound 0.0949 µM): 16.7%
viability, T/C (second compound 1 µM, first compound 0.3 µM): 16.7%
viability, T/C (second compound 3.16 µM, first compound 0.000949 µM): 20.1%
viability, T/C (second compound 3.16 µM, first compound 0.003 µM): 20.9%
viability, T/C (second compound 3.16 µM, first compound 0.00949 µM): 21.1%
viability, T/C (second compound 3.16 µM, first compound 0.03 µM): 19.5%
viability, T/C (second compound 3.16 µM, first compound 0.0949 µM): 17.9%
viability, T/C (second compound 3.16 µM, first compound 0.3 µM): 14.8%
viability, T/C (second compound 10 µM, first compound 0.000949 µM): 18.9%
viability, T/C (second compound 10 µM, first compound 0.003 µM): 21.2%
viability, T/C (second compound 10 µM, first compound 0.00949 µM): 18.1%
viability, T/C (second compound 10 µM, first compound 0.03 µM): 19.4%
viability, T/C (second compound 10 µM, first compound 0.0949 µM): 17.6%
viability, T/C (second compound 10 µM, first compound 0.3 µM): 15.3%

pIC50 (curve of compound): 5.36 and 5.68
SMILES: COc1ccc([C@@H](O)c2cc(-c3ncnc4cc(N5CCOCC5)ccc34)c(F)cc2Cl)nn1
viability, T/C (compound 0.0316 µM): 88.4% and 91.3%
viability, T/C (compound 0.1 µM): 92.5% and 94.2%
viability, T/C (compound 0.316 µM): 73% and 78.6%
viability, T/C (compound 1 µM): 66.6% and 61.9%
viability, T/C (compound 3.16 µM): 59.3% and 44.2%
viability, T/C (compound 10 µM): 35.7% and 31%
